# Test results as given in patent publication EP0169785A1, “Use of 1,8,9-triacetoxy-anthracene as the active ingredient in the preparation of an antitumoral pharmaceutical compound” (CENTRE INTERNATIONAL DE RECHERCHES DERMATOLOGIQUES C.I.R.D. …, priority 1984, dated 1986).
# Columns and labels:
# [1] = system: cellules de mélanocarcinome B 16; assay: Anti-tumour activity against intraperitoneally implanted B 16 melanocarcinoma in mice (median survival time); type: in vivo, souris; conditions: for Temps médian de survie (en jours) Animaux testés T / T/C X 100: intraperitoneal; for Temps médian de survie (en jours) Animaux testés T: daily for 9 days after tumour implantation, controls C 15,4 days; for T/C X 100: active when ratio above 125
# Method: EXEMPLE 5 - Etude de l'activité anti-tumorale vis-à-vis des cellules de mélanocarcinome B 16.
# Le principe du test est le suivant : On a implanté, chez la souris, par injection intrapériotonéale au jour 0, 0,5 ml d'un homogénéisat dilué (1/10) des cellules tumorales.
# Le traitement consiste à administrer le produit étudié, quotidiennement, par voie intrapéritonéale, pendant les 9 jours suivant l'implantation de la tumeur.
# Ou considère qu'un produit est actif, selon ce test, lorsque le rapport [formula] est supérieur à 125.
# [2] = Solubility (qualitative description); type: physicochemical; conditions: solvents named
# [3] = system: cellules leucémiques lymphocytiques P 388; assay: Anti-tumour activity against intraperitoneally implanted P 388 lymphocytic leukaemia in mice (median survival time); type: in vivo, souris; conditions: for Temps médian de survie (en jours) Animaux testés T / T/C x 100: intraperitoneal; for Temps médian de survie (en jours) Animaux testés T: daily for 5 days after tumour implantation, controls C 9,9 days; for T/C x 100: active when ratio above 120
# Method: EXEMPLE 4 - Etude de l'activité anti-tumorale vis-à-vis des cellules leucémiques lymphocytiques P 388.
# Le principe du test est le suivant : On implante chez la souris, au jour zéro, une tumeur, par injection intrapéritonéale de 10^6 cellules tumorales dans 0,1 ml de fluide ascitique dilué. Le traitement consiste à administrer quotidiennement le produit étudié, par voie intrapéritonéale pendant les 5 jours suivant l'implantation de la tumeur.
# On considère que le produit est actif selon ce test, lorsque le rapport [formula] est supérieur à 120.
compound,measurement,setting,value
"CC(=O)Oc1cccc2cc3cccc(OC(C)=O)c3c(OC(C)=O)c12 [composé de formule I, triacétoxy-1,8,9 anthracène]",Temps médian de survie (en jours) Animaux testés T,"[1]; 0,75 mg/kg","19,7 jours"
same,T/C X 100,"[1]; 0,75 mg/kg, daily for 9 days",127
same,Temps médian de survie (en jours) Animaux testés T,[1]; 3 mg/kg,20 jours
same,T/C X 100,"[1]; 3 mg/kg, daily for 9 days",129
same,Temps médian de survie (en jours) Animaux testés T,"[1]; 1,5 mg/kg",23 jours
same,T/C X 100,"[1]; 1,5 mg/kg, daily for 9 days",149
same,dose optimale,"[1]; B 16, intraperitoneal, daily for 9 days","~1,50 mg/kg"
same,solubilité,[2],soluble notamment dans les alcools et l'acétone
same,Temps médian de survie (en jours) Animaux testés T,"[3]; 0,79 mg/kg","12,3 jours"
same,T/C x 100,"[3]; 0,79 mg/kg, daily for 5 days",124
same,Temps médian de survie (en jours) Animaux testés T,"[3]; 1,56 mg/kg","13,3 jours"
same,T/C x 100,"[3]; 1,56 mg/kg, daily for 5 days",134
same,Temps médian de survie (en jours) Animaux testés T,"[3]; 3,12 mg/kg",13 jours
same,T/C x 100,"[3]; 3,12 mg/kg, daily for 5 days",131
same,minimal effective dose,"[3]; Mus musculus, P388, ip, 120 h, P 388, intraperitoneal, daily for 5 days, dose at which the compound is active (T/C x 100 above 120), read-out: actif à la dose de",~0.8 mg/kg
same,dose optimale,"[3]; P 388, intraperitoneal, daily for 5 days","~1,56 mg/kg"
